test system: Aβ1-42 production; test: Cellular assay for inhibition of Aβ1-42 production (H4 APP751 SWE clone 8.20); type: cell-based; conditions: 19 h, H4 APP751 SWE clone 8.20 cells, 19 h incubation; read-out: Activity Rating (Aβ42 cellular IC50, given as a number)
Experimental: Cellular assays for inhibition of Aβ1-40 and Aβ1-42 production
H4 cells stably transfected with APP751 containing the Swedish mutation (H4 APP751 SWE clone 8.20, developed at BMS) were maintained in log phase through twice weekly passage at a 1:20 split. For IC50 determinations, 30 μl cells (1.5×10^4 cells/well) in DMEM media containing 0.0125% BSA (Sigma A8412) were plated directly into 384-well compound plates (Costar 3709) containing 0.1 μl serially diluted compound in DMSO. Following incubation for 19 h in 5% CO2 at 37° C., plates were briefly centrifuged (1000 rpm, 5 min). A 10 μl aliquot from each well was transferred to a second assay plate (Costar 3709) for Aβ40 measurements. Antibody cocktails were freshly prepared by dilution into 40 mM Tris-HCl (pH 7.4) with 0.2% BSA and added to assay plates. For Aβ42 measurements, antibodies specific for the Aβ42 neoepitope (565, developed at BMS; conjugated to the Wallac reagent (Perkin Elmer)) and the N-terminal sequence of Aβ peptide (26D6, developed at SIBIA; conjugated to APC (Perkin Elmer)) were mixed and 20 μl of the mixture was added to each well of the incubated cell plate yielding a final concentration of 0.8 ng/well 565 and 75 ng/well 26D6. For the Aβ40 measurements, antibodies specific for the Aβ40 neoepitope (TSD, developed at BMS; conjugated to the Wallac reagent (Perkin Elmer)) and 26D6 as described above were mixed and 20 μl of the mixture was added to the 10 μl aliquots which had been removed previously from the cell plate yielding a final concentration of 1.6 ng/well TSD and 17.5 ng/well 26D6. Assay plates containing antibodies were sealed with aluminum foil and incubated overnight at 4° C. Signal was determined using a Viewlux counter (Perkin Elmer) and IC50 values determined using curve fitting in CurveMaster (Excel Fit based).

IC50	Structure (SMILES)
110 nM	COc1cc(Nc2nc3n(n2)CC=CCC3(C)C)ccc1-n1cnc(Cl)c1 [Example 9, (Z)—N-(4-(4-chloro-1H-imidazol-1-yl)-3-methoxyphenyl)-9,9-dimethyl-8,9-dihydro-5H-[1,2,4]triazolo[1,5-a]azepin-2-amine 2,2,2-trifluoroacetate]
110 nM	Cc1ncn(-c2ccc(Nc3nc4n(n3)CCCC4c3ccc(F)cc3)cc2C#N)n1 (centres unmarked) [Example 11, 5-(8-(4-fluorophenyl)-5,6,7,8-tetrahydro-[1,2,4]triazolo[1,5-a]pyridin-2-ylamino)-2-(3-methyl-1H-1,2,4-triazol-1-yl)benzonitrile, 2,2,2-trifluoroacetate]
8 nM	COc1cc(Nc2nc3n(n2)CCCC3c2ccc(Cl)cc2Cl)ccc1-n1cnc(Cl)c1 (centres unmarked) [Example 12, N-(4-(4-chloro-1H-imidazol-1-yl)-3-methoxyphenyl)-8-(2,4-dichlorophenyl)-5,6,7,8-tetrahydro-[1,2,4]triazolo[1,5-a]pyridin-2-amine]
9 nM	COc1cc(Nc2nc3n(n2)CCCCC3c2ccc(F)cc2)ccc1-n1cnc(Cl)n1 (centres unmarked) [Example 33, N-(4-(3-chloro-1H-1,2,4-triazol-1-yl)-3-methoxyphenyl)-9-(4-fluorophenyl)-6,7,8,9-tetrahydro-5H-[1,2,4]triazolo[1,5-a]azepin-2-amine 2,2,2-trifluoroacetate]

same assay, conditions: 19 h, H4 APP751 SWE clone 8.20 cells, 19 h incubation; read-out: Activity Rating (based on Aβ42 cellular IC50 values)

Structure (SMILES)	IC50
COc1cc(Nc2nc3n(n2)CCCC[C@@H]3c2ccc(OC(F)(F)F)cc2)c(F)cc1-n1cnc(C)n1 (single isomer, unassigned) [Example 177]	10 to 100 nM
COc1cc(Nc2nc3n(n2)CC=CCC3c2ccc(F)cc2)ccc1-n1cnc(Cl)c1 (centres unmarked) [Example 1, (Z)—N-(4-(4-chloro-1H-imidazol-1-yl)-3-methoxyphenyl)-9-(4-fluorophenyl)-8,9-dihydro-5H-[1,2,4]triazolo[1,5-a]azepin-2-amine]	< 10 nM
COc1cc(Nc2nc3n(n2)CC=CCC3c2ccc(F)cc2)ccc1-n1cnc(C)n1 (centres unmarked) [Example 4, (Z)-9-(4-fluorophenyl)-N-(3-methoxy-4-(3-methyl-1H-1,2,4-triazol-1-yl)phenyl)-8,9-dihydro-5H-[1,2,4]triazolo[1,5-a]azepin-2-amine]	10 to 100 nM
COc1cc(Nc2nc3n(n2)CCCCC3c2ccc(F)cc2)ccc1-n1cnc(C)n1 (centres unmarked) [Example 7, 9-(4-fluorophenyl)-N-(3-methoxy-4-(3-methyl-1H-1,2,4-triazol-1-yl)phenyl)-6,7,8,9-tetrahydro-5H-[1,2,4]triazolo[1,5-a]azepin-2-amine 2,2,2-trifluoroacetate]	10 to 100 nM
COc1cc(Nc2nc3n(n2)CC=CCC3c2ccc(Cl)cc2Cl)ccc1-n1cnc(Cl)c1 (centres unmarked) [Example 8, (Z)—N-(4-(4-chloro-1H-imidazol-1-yl)-3-methoxyphenyl)-9-(2,4-dichlorophenyl)-8,9-dihydro-5H-[1,2,4]triazolo[1,5-a]azepin-2-amine]	10 to 100 nM
Cc1ncnn1-c1ccc(Nc2nc3n(n2)CCCC3c2ccc(F)cc2)cc1F (centres unmarked) [Example 13, N-(3-fluoro-4-(5-methyl-1H-1,2,4-triazol-1-yl)phenyl)-8-(4-fluorophenyl)-5,6,7,8-tetrahydro-[1,2,4]triazolo[1,5-a]pyridin-2-amine]	10 to 100 nM
Cc1ncn(-c2ccc(Nc3nc4n(n3)CCCCC4c3ccc(F)cc3)cc2F)n1 (centres unmarked) [Example 25, N-(3-fluoro-4-(3-methyl-1H-1,2,4-triazol-1-yl)phenyl)-9-(4-fluorophenyl)-6,7,8,9-tetrahydro-5H-[1,2,4]triazolo[1,5-a]azepin-2-amine]	10 to 100 nM
COc1cc(Nc2nc3n(n2)CCCCC3c2ccc(F)cc2)c(F)cc1-n1cnc(C)n1 (centres unmarked) [Example 28, N-(2-fluoro-5-methoxy-4-(3-methyl-1H-1,2,4-triazol-1-yl)phenyl)-9-(4-fluorophenyl)-6,7,8,9-tetrahydro-5H-[1,2,4]triazolo[1,5-a]azepin-2-amine 2,2,2-trifluoroacetate]	10 to 100 nM
COc1cc(Nc2nc3n(n2)CCCC[C@H]3c2ccc(F)cc2)c(F)cc1-n1cnc(C)n1 [Example 29, (S)—N-(2-fluoro-5-methoxy-4-(3-methyl-1H-1,2,4-triazol-1-yl)phenyl)-9-(4-fluorophenyl)-6,7,8,9-tetrahydro-5H-[1,2,4]triazolo[1,5-a]azepin-2-amine]	10 to 100 nM
COc1cc(Nc2nc3n(n2)CCCCC3c2ccc(OC(F)(F)F)cc2)ccc1-n1cnc(Cl)c1 (centres unmarked) [Example 31, N-(4-(4-chloro-1H-imidazol-1-yl)-3-methoxyphenyl)-9-(4-(trifluoromethoxy)phenyl)-6,7,8,9-tetrahydro-5H-[1,2,4]triazolo[1,5-a]azepin-2-amine 2,2,2-trifluoroacetate]	< 10 nM
COc1cc(Nc2nc3n(n2)CCCCC3c2ccc(Cl)cc2)ccc1-c1cnn(C)c1 (centres unmarked) [Example 34, 9-(4-chlorophenyl)-N-(3-methoxy-4-(1-methyl-1H-pyrazol-4-yl)phenyl)-6,7,8,9-tetrahydro-5H-[1,2,4]triazolo[1,5-a]azepin-2-amine 2,2,2-trifluoroacetate]	10 to 100 nM
COc1cc(Nc2nc3n(n2)CCCCC3n2cc(Cl)cn2)ccc1-n1cnc(Cl)c1 (centres unmarked) [Example 42, N-(4-(4-chloro-1H-imidazol-1-yl)-3-methoxyphenyl)-9-(4-chloro-1H-pyrazol-1-yl)-6,7,8,9-tetrahydro-5H-[1,2,4]triazolo[1,5-a]azepin-2-amine 2,2,2-trifluoroacetate]	10 to 100 nM
COc1cc(Nc2nc3n(n2)CCCCC3c2ccc(F)cc2)ccc1-n1cnc(C(F)F)c1 (centres unmarked) [Example 43, N-(4-(4-(difluoromethyl)-1H-imidazol-1-yl)-3-methoxyphenyl)-9-(4-fluorophenyl)-6,7,8,9-tetrahydro-5H-[1,2,4]triazolo[1,5-a]azepin-2-amine 2,2,2-trifluoroacetate]	10 to 100 nM

Results, then the molecule that gave them:

IC50	Structure (SMILES)
10 to 100 nM	COc1cc(Nc2nc3n(n2)CCCC3c2ccc(F)cc2)ccc1-n1cnc(Cl)c1 (centres unmarked) [Example 10, N-(4-(4-chloro-1H-imidazol-1-yl)-3-methoxyphenyl)-8-(4-fluorophenyl)-5,6,7,8-tetrahydro-[1,2,4]triazolo[1,5-a]pyridin-2-amine 2,2,2-trifluoroacetate]
< 10 nM	COc1cc(Nc2nc3n(n2)CCCCC3c2ccc(F)cc2)ccc1-n1cnc(Cl)c1 (centres unmarked) [Example 16, N-(4-(4-Chloro-1H-imidazol-1-yl)-3-methoxyphenyl)-9-(4-fluorophenyl)-6,7,8,9-tetrahydro-5H-[1,2,4]triazolo[1,5-a]azepin-2-amine]
< 10 nM	COc1cc(Nc2nc3n(n2)CCCCC3c2ccc(Cl)cc2Cl)ccc1-n1cnc(Cl)c1 (centres unmarked) [Example 19, N-(4-(4-chloro-1H-imidazol-1-yl)-3-methoxyphenyl)-9-(2,4-dichlorophenyl)-6,7,8,9-tetrahydro-5H-[1,2,4]triazolo azepin-2-amine 2,2,2-trifluoroacetate]
< 10 nM	COc1cc(Nc2nc3n(n2)CCCCC3c2ccc(F)c(F)c2)ccc1-n1cnc(Cl)c1 (centres unmarked) [Example 22, N-(4-(4-chloro-1H-imidazol-1-yl)-3-methoxyphenyl)-9-(3,4-difluorophenyl)-6,7,8,9-tetrahydro-5H-[1,2,4]triazolo[1,5-a]azepin-2-amine 2,2,2-trifluoroacetate]
< 10 nM	COc1cc(Nc2nc3n(n2)CCCCC3c2ccc(Cl)cc2)ccc1-n1cnc(Cl)c1 (centres unmarked) [Example 32, N-(4-(4-chloro-1H-imidazol-1-yl)-3-methoxyphenyl)-9-(4-chlorophenyl)-6,7,8,9-tetrahydro-5H-[1,2,4]triazolo[1,5-a]azepin-2-amine 2,2,2-trifluoroacetate]
< 10 nM	COc1cc(Nc2nc3n(n2)CCCCC3c2ccc(F)cc2F)ccc1-n1cnc(Cl)c1 (centres unmarked) [Example 35, N-(4-(4-chloro-1H-imidazol-1-yl)-3-methoxyphenyl)-9-(2,4-difluorophenyl)-6,7,8,9-tetrahydro-5H-[1,2,4]triazolo[1,5-a]azepin-2-amine 2,2,2-trifluoroacetate]
< 10 nM	COc1cc(Nc2nc3n(n2)CCCCC3c2cc(F)cc(F)c2)ccc1-n1cnc(Cl)c1 (centres unmarked) [Example 38, N-(4-(4-chloro-1H-imidazol-1-yl)-3-methoxyphenyl)-9-(3,5-difluorophenyl)-6,7,8,9-tetrahydro-5H-[1,2,4]triazolo[1,5-a]azepin-2-amine]
10 to 100 nM	COc1cc(Nc2nc3n(n2)CCCCC3c2ccc(Cl)nc2)ccc1-n1cnc(Cl)c1 (centres unmarked) [Example 41, N-(4-(4-chloro-1H-imidazol-1-yl)-3-methoxyphenyl)-9-(6-chloropyridin-3-yl)-6,7,8,9-tetrahydro-5H-[1,2,4]thiazolo[1,5-a]azepin-2-amine 2,2,2-trifluoroacetate]
< 10 nM	COc1cc(Nc2nc3n(n2)CCCCC3c2cccc(F)c2)ccc1-n1cnc(Cl)c1 (centres unmarked) [Example 44, N-(4-(4-chloro-1H-imidazol-1-yl)-3-methoxyphenyl)-9-(3-fluorophenyl)-6,7,8,9-tetrahydro-5H-[1,2,4]triazolo[1,5-a]azepin-2-amine]
